One test has as its system B16 melanoma cells. Put plainly: Calcium influx into B16 melanoma cells (Fluo-4 NW Calcium Assay, Thapsigargin-stimulated). Type of test: cell-based, mouse. The conditions noted are these: 100 μM 2-APB, area under curve of calcium influx peak vs vehicle control. The protocol: Modified yeast peptide fractions comprising a zinc-complexed peptide comprising SEQ ID NO:1 were tested in vitro for the ability to inhibit calcium influx into pigment-producing cells. An experiment was designed to measure intracellular calcium in B16 melanoma cells using Fluo-4 NW Calcium Assay Kits (Invitrogen) as per manufacturer's instructions. B16 mouse melanoma cell lines (ATCC, cat. #: CRL-6475) were grown in 96-well tissue culture treated dishes in growth medium. Prior to calcium treatment, growth medium from the B16 cell cultures was removed and 100 μL of the dye loading solution was added quickly to each well of a 96-well plate. Plates were incubated at 37° C. for 30 minutes, then at room temperature for an additional 30 minutes. Dye buffer was removed and plates were washed once with 1×PBS and replaced with an assay buffer that contains calcium (and was formed according to the manufacturer's directions) along with a test compound. […]
Fluorescence was measured using a micro-plate reader at excitation/emission wavelengths of 485 nm/530 nm, respectively. The reader was set to read florescence every 30 seconds for a period of 5 minutes. […] The fluorescence micro-plate reader was set to take fluorescence measurements every 30 seconds for a period of 30 minutes, again at excitation/emission wavelengths of 485 nm/530 nm, respectively. […]

The test system of test [1] is B16 mouse melanoma cell lines. Put plainly: Melanin synthesis in B16 cells, normalized to cell viability (MTT). The conditions noted are these: 100 μM 2-APB, 7 days, relative to control. Type of test: cell-based. The protocol:
Next, the effects of 2-APB and modified peptide fractions having a zinc-complexed peptide comprising SEQ ID NO:1 on melanin synthesis were examined in B16 cells. B16 mouse melanoma cell lines (ATCC, cat. #: CRL-6475) were grown in 96-well tissue culture treated dishes (Falcon) and treated with a test compound to determine its ability to modulate pigment formation (melanin synthesis). Specifically, cells were exposed to 100 μM 2-APB or modified yeast peptide fractions comprising different concentrations of zinc-complexed peptide comprising SEQ ID NO:1, including 1% and 0.1% zinc-complexed peptide, for seven (7) days. Following the treatment period, the level of melanin synthesized was quantified using a Packard micro-plate reader at 540 nm.
After quantifying the amount of melanin synthesized, cell viability was determined using the MTT conversion method. […] After melanin synthesis quantification, the cultures were exposed to MTT dye solution with a concentration of 1 mg/ml for three hours. […] MTT dye uptake and conversion by viable cells was determined by measuring the extracted formazan at 570 nm using a Packard micro-plate reader.
After normalizing to cell viability, total pigmentation then was calculated, and expressed as a percent activity of control. […]

As to `NCCOB(c1ccccc1)c1ccccc1` [2-APB, 2-aminoethyl diphenylborate], the “inhibition of calcium entry into the cells” value in the test on B16 melanoma cells stood at 86%. Further, in test [1], the “inhibition of melanin synthesis” value was 77%.
